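Results reflect a 48-hour exposure of cells in 96-well plates to compound at five concentrations. TGI is the concentration that stops growth completely.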
Assays:
Experiment in all cases: NCI anticancer screen, dose series, 48 h
[1] = tested on: HOP-62 NSCLC
[2] = tested on: OVCAR-3 ovarian
[3] = tested on: A549 NSCLC
[4] = tested on: HT29 colon
[5] = tested on: LOX IMVI melanoma
[6] = tested on: UACC-257 melanoma
[7] = tested on: A498 renal
[8] = tested on: SNB-19 CNS
[9] = tested on: RPMI-8226 leukemia
[10] = tested on: NCI/ADR-RES ovarian
[11] = tested on: OVCAR-4 ovarian
[12] = tested on: NCI-H23 lung
[13] = tested on: MDA-N
[14] = tested on: SK-MEL-2 melanoma
[15] = tested on: SF-268 CNS

Structure (SMILES) | TGI [1] | TGI [2] | TGI [3] | TGI [4] | TGI [5] | TGI [6] | TGI [7] | TGI [8] | TGI [9] | TGI [10] | TGI [11] | TGI [12] | TGI [13] | TGI [14] | TGI [15]
COc1ccc(NC(C)=O)cc1N1C(=O)/C(=C\c2cccc(Oc3ccccc3)c2)SC1c1ccccc1 (stereo unspecified) | > 100 µM | 71.3 µM | > 100 µM | 45.5 µM | 55.5 µM | > 100 µM | > 100 µM | > 100 µM | 61.9 µM | 54.8 µM | > 100 µM | > 100 µM | 81.9 µM | > 100 µM | –
CC(=O)c1cccc(NC(=O)/C(=N\NC(=S)NN)C2C(=O)Nc3ccccc3S2=O)c1 (stereo unspecified) | > 100 µM | > 100 µM | > 100 µM | > 100 µM | > 100 µM | > 100 µM | > 100 µM | > 100 µM | > 100 µM | > 100 µM | – | > 100 µM | > 100 µM | > 100 µM | > 100 µM
CCCNC(=O)c1cc(NC(=O)c2cc(NC(=O)CCS(=O)(=O)OC)cn2C)cn1C | > 53.1 µM | 27.4 µM | > 100 µM | > 56.9 µM | 43.6 µM | 53.5 µM | > 100 µM | 4.82 µM | > 100 µM | > 100 µM | > 73.6 µM | 40.7 µM | > 69.8 µM | 53.8 µM | –
CC(=O)NC1=CC(=O)C=C(Cl)C1=O | > 100 µM | > 100 µM | > 100 µM | > 100 µM | – | > 100 µM | > 100 µM | > 100 µM | 52.1 µM | > 100 µM | 37.7 µM | > 100 µM | 31 µM | > 100 µM | > 100 µM
Cc1ccc2nnc(NS(=O)(=O)c3cc(C)c(Cl)cc3S)n2n1 | > 100 µM | > 100 µM | > 100 µM | > 100 µM | > 100 µM | > 100 µM | > 100 µM | > 100 µM | > 100 µM | > 100 µM | > 100 µM | – | > 100 µM | > 100 µM | > 100 µM
N#CCCN(CCC#N)c1ccc(/C=C2\N=C(c3ccccc3)N(c3ccccc3)C2=O)cc1 | > 100 µM | > 100 µM | > 100 µM | > 100 µM | > 100 µM | > 100 µM | > 100 µM | > 100 µM | > 100 µM | > 100 µM | > 100 µM | – | > 100 µM | > 100 µM | –
CCOC(=O)C(C(=O)OCC)C(NC(=O)Nc1cc(C(F)(F)F)ccc1OC)(C(F)(F)F)C(F)(F)F | 56.6 µM | 54.3 µM | > 100 µM | 92.1 µM | > 100 µM | 94.1 µM | 31.9 µM | > 100 µM | 56.8 µM | 75.9 µM | 98.6 µM | 85.6 µM | > 100 µM | – | > 100 µM
C1COCCOP2(N3CC3)=NP(N3CC3)(=NP(N3CC3)(N3CC3)=N2)OCCOCCO1 (stereo unspecified) | > 100 µM | > 100 µM | > 100 µM | > 100 µM | > 100 µM | > 100 µM | > 100 µM | > 100 µM | > 100 µM | > 100 µM | > 100 µM | > 100 µM | > 100 µM | – | > 100 µM
